Patent US6716851B2, “Substituted 2-aryl-4-arylaminopyrimidines and analogs as activators or caspases and inducers of apoptosis and the use thereof” (Cytovia, Inc., priority 2000, dated 2004)
Where a name gives a salt, the structure may show the parent alone.

Legend:
ZR-75-1 cells = test: Caspase cascade activation (N-(Ac-DEVD)-N'-ethoxycarbonyl-R110 fluorogenic substrate) in ZR-75-1 cells; assay type: cell-based, Human; details: ZR-75-1, 48 h incubation; for EC50: Homo sapiens, caspase activation potency; for ZR Ratio 48 hr: caspase activity: ratio of net RFU of test compound to control
Description: (§1) Human breast cancer cell lines T-47D and ZR-75-1 were grown according to media component mixtures designated by American Type Culture Collection +10% FCS (Invitrogen Corporation, Life Technologies division), in a 5% CO2-95% humidity incubator at 37° C. T-47D and ZR-75-1 cells were maintained at a cell density between 50 and 80% confluency at a cell density of 0.1 to 0.6×10^6 cells/ml. Cells were harvested at 600× g and resuspended at 0.65×10^6 cells/ml into appropriate media +10% FCS. An aliquot of […] of cells was added to a well of a […] microtiter plate containing 2.5 μl of a 10% DMSO in RPMI-1640 media solution containing 0.16 to 100 μM of 4-(3-methoxyanilino)-2-(2-pyridinyl)-6-(trifluoromethyl)pyrimidine or other test compound (0.016 to 10 μM final). An aliquot of 22.5 μl of cells was added to a well of a 384-well microtiter plate containing 2.5 μl of a 10% DMSO in RPMI-1640 media solution without test compound as the control sample. The samples were mixed by agitation and then incubated at 37° C. for 48 h in a 5% CO2-95% humidity incubator. After incubation, the samples were removed from the incubator and 25 μl of a solution containing 14 μM of N-(Ac-DEVD)-N′-ethoxycarbonyl-R110 fluorogenic substrate (Cytovia, Inc.; WO99/18856), 20% sucrose (Sigma), 20 mM DTT (Sigma), 200 mM NaCl (Sigma), 40 mM Na PIPES buffer pH 7.2 (Sigma), and 500 μg/ml lysolecithin (Calbiochem) was added. The samples were mixed by agitation and incubated at room temperature. Using a fluorescent plate reader (Model SpectraMax Gemini, Molecular Devices), an initial reading (T=0) was made approximately 1-2 min after addition of the substrate solution, employing excitation at 485 nm and emission at 530 nm, to determine the background fluorescence of the control sample. After the 3 h incubation, the samples were read for fluorescence as above (T=3 h).
(§2) The Relative Fluorescence Unit values (RFU) were used to calculate the sample readings as follows:
(§3) RFU(T=3h)−Control RFU(T=0)=Net RFU(T=3h)
(§4) The activity of caspase cascade activation was determined by the ratio of the net RFU value for 4-(3-methoxyanilino)-2-(2-pyridinyl)-6-(trifluoromethyl)pyrimidine or other test compound to that of control samples. The EC50 (nM) was determined by a sigmoidal dose-response calculation (Prism 2.0, GraphPad Software Inc.).

T-47D cells = test: Caspase cascade activation (N-(Ac-DEVD)-N'-ethoxycarbonyl-R110 fluorogenic substrate) in T-47D cells; assay type: cell-based, Human; details: 48 h incubation; for EC50: Homo sapiens, T47D, caspase activation potency, read-out: T47 EC50; for T47 Ratio 48 hr: caspase activity: ratio of net RFU of test compound to control
Description: as §1, §2, §3, §4

Compound	EC50 (ZR-75-1 cells) [nM]	ZR Ratio 48 hr (ZR-75-1 cells)	EC50 (T-47D cells) [nM]	T47 Ratio 48 hr (T-47D cells)
Oc1ccc(Cl)c(Nc2cc(C(F)(F)F)nc(-c3ccncc3)n2)c1 [Example 107, 4-(2-Chloro-5-hydroxyanilino)-2-(4-pyridinyl)-6-(trifluoromethyl)pyrimidine]	123	5.3	63	8.0
Cc1cc(Nc2c(C)cccc2C)nc(-c2ccccn2)n1 [Example 108, 4-(2,6-Dimethylanilino)-6-methyl-2-(2-pyridinyl)pyrimidine]	4370	2.4	> 5000	0.9
COc1cccc(Nc2cc(-c3ccccn3)nc(-c3ccccn3)n2)c1 [Example 109, 4-(3-Methoxyanilino)-2,6-di(2-pyridinyl)pyrimidine]	2590	3.6	1500	3.9
COc1ccc(OC)c(Nc2cc(-c3ccccn3)nc(-c3ccccn3)n2)c1 [Example 110, 4-(2,5-Dimethoxyanilino)-2,6-di(2-pyridinyl)pyrimidine]	648	11.6	576	8.9
COc1ccc(C)c(Nc2cc(-c3ccccn3)nc(-c3ccccn3)n2)c1 [Example 111, 4-(5-Methoxy-2-methylanilino)-2,6-di(2-pyridinyl)pyrimidine]	2570	3.9	1420	4.0
COc1ccc(C)cc1Nc1cc(-c2ccccn2)nc(-c2ccccn2)n1.Cl [Example 112, 4-(2-Methoxy-5-methylanilino)-2,6-di(2-pyridinyl)pyrimidine]	2370	2.9	1860	3.3
COc1ccc(Cl)c(Nc2cc(-c3ccccn3)nc(-c3ccccn3)n2)c1.Cl [Example 113, 4-(2-Chloro-5-methoxyanilino)-2,6-di(2-pyridinyl)pyrimidine]	2730	4.1	1430	4.4
Cc1ccc(C)c(Nc2cc(-c3ccccn3)nc(-c3ccccn3)n2)c1 [Example 114, 4-(2,5-Dimethylanilino)-2,6-di(2-pyridinyl)pyrimidine]	2800	3.7	2540	3.6
Cc1ccc(C)c(Nc2cc(C(F)(F)F)nc(-c3ccncc3)n2)c1 [Example 115, 4-(2,5-Dimethylanilino)-2-(4-pyridinyl)-6-(trifluoromethyl)pyrimidine hydrochloride]	59	11.6	112	14.2
COc1ccc(C)cc1Nc1cc(C(F)(F)F)nc(-c2ccncc2)n1 [Example 116, 4-(2-Methoxy-5-methylanilino)-2-(4-pyridinyl)-6-(trifluoromethyl)pyrimidine]	73	8.8	71	13.7
Cc1ccc(O)cc1Nc1cc(C(F)(F)F)nc(-c2cccnc2)n1 [Example 117, 4-(5-Hydroxy-2-methylanilino)-2-(3-pyridinyl)-6-(trifluoromethyl)pyrimidine]	276	6.3	138	11.3
Cc1ccc(O)cc1Nc1cc(C(F)(F)F)nc(-c2ccncc2)n1 [Example 118, 4-(5-Hydroxy-2-methylanilino)-2-(4-pyridinyl)-6-(trifluoromethyl)pyrimidine]	31	9.9	34	8.8
Cc1ccc(C#N)c(Nc2cc(C(F)(F)F)nc(-c3cccnc3)n2)c1 [Example 120, 4-(2-Cyano-5-methylanilino)-2-(3-pyridinyl)-6-(trifluoromethyl)pyrimidine]	2400	4.5	2690	8.2
